Reference: US9968582B2, “Use of a benzoate containing composition in urea cycle disorders and neurodegenerative disorders” (Rush University Medical Center, priority 2014, dated 2018)

Columns and labels:
Format in all cases: in vivo
encephalitogenic T cells = test: Generation of encephalitogenic T cells in GTB-treated donor mice, adoptive transfer; details: donor mice treated with GTB 50 mg/kg body wt/d orally from day of MBP immunization; vs untreated or vehicle-treated donors; FIG. 2
spinal cord of EAE mice = test: Luxol fast blue staining for myelin, spinal cord of EAE mice; details: FIG. 5A-B
Protocol: Sections were stained with Luxol fast blue for myelin as described earlier. Slides were assessed in a blinded fashion for demyelination by three examiners using the following scale: 0, normal white matter; 1, rare foci; 2, a few areas of demyelination; and 3, large areas of demyelination. At least six serial sections of each spinal cord from each of five mice per group were scored and statistically analyzed by ANOVA.
Demyelination is the most important pathological feature in MS, which is also modeled in EAE animals. Therefore, the inventor examined whether GTB protected EAE mice from demyelination. The inventor stained spinal cord sections by luxol fast blue (LFB) for myelin and observed widespread demyelination zones in the white matter (FIG. 5A-B). […] In contrast, vehicle was unable to restore myelin level in spinal cord of EAE mice (FIG. 5A-B). To confirm this finding, the inventor monitored the expression of […] myelin genes, myelin basic protein (MBP) and proteolipid protein (PLP), and observed a marked loss of mRNA expression of these genes in the spinal cord of untreated EAE mice compared to control mice (FIG. 5C-E).

TGF-β = TGF-β ELISA in serum of EAE mice; details: GTB from 8 dpt, sacrificed 16 dpt; FIG. 6
Excerpt: Production of TGF-β in culture supernatant was monitored by ELISA using assay kit from eBioscience (San Diego, Calif.).
Because TGF-β is known to protect mice from EAE, the inventor examined the level of TGF-β in serum of GTB-treated and untreated EAE mice by ELISA. EAE mice receiving GTB or vehicle from 8 dpt were sacrificed on 16 dpt followed by analysis of TGF-β in serum. The inventor observed marked decrease in TGF-β in the serum of EAE mice as compared to control mice (FIG. 6).

female SJL/J mice = test: Adoptively-transferred RR-EAE, clinical symptoms; details: for clinical symptoms (mean clinical score): FIG. 1A

O=C(OCC(COC(=O)c1ccccc1)OC(=O)c1ccccc1)c1ccccc1 [GTB, glyceryl tribenzoate]
clinical symptoms and disease severity of recipient mice (encephalitogenic T cells): significantly reduced clinical symptoms and disease severity | myelin level in the spinal cord (LFB) (spinal cord of EAE mice): remarkably restored myelin level | TGF-β in serum (TGF-β): protected TGF-β | clinical symptoms (mean clinical score) (female SJL/J mice; GTB 25 mg/kg body wt/d by gavage once daily from 8 dpt): significantly inhibited clinical symptoms | clinical symptoms (mean clinical score) (female SJL/J mice; GTB 50 mg/kg body wt/d by gavage from 8 dpt, acute and chronic phases): dramatic inhibition of clinical symptoms | clinical symptoms (mean clinical score) (female SJL/J mice; GTB 100 mg/kg body wt/d by gavage from 8 dpt): less potent than either 50 mg/kg body wt/d | clinical symptoms of adoptively-transferred RR-EAE (female SJL/J mice; GTB treatment, TGF-β blocking experiment, FIG. 8): ameliorated clinical symptoms | dose that significantly suppressed clinical symptoms of EAE (female SJL/J mice; dose-dependent study, oral GTB): ≥ 25 mg/kg body wt/d
